Source: US8349793B2, “Method for treatment of inflammatory disease and disorder” (Heal0r, Ltd., priority 2010, dated 2013)
Where no end group is shown, it is not given here.

Assays:
keratinocytes [1] = experiment: Cytokine secretion in keratinocytes stimulated by LPS, TNFα or IL-17 (ELISA); type: cell-based, BALB/C mice
Method: To determine their effects, keratinocytes were derived from newborn BALB/C mice skin. The cells were incubated for 5 days in 24 wells plate. Cells were then incubated with PBS−/− as control or stimulated by LPS, TNFα, or IL-17. PKCα inhibitors were added as indicated. Medium containing secreted cytokines was collected after 48 hr and analyzed using ELISA. FIG. 40 is a tabular summary of cytokine secretion.
PKCδactivators were also shown to have an anti-inflammatory effect on keratinocytes and splenocytes. Keratinocytes were derived from newborn BALB/C mice skin. The cells were incubated for 5 days in 24 wells plate. Cells were then incubated with PBS−/− as control or stimulated by LPS or TNFα. The PKCδ inhibitor DAP-1 (SEQ ID NO: 16) was added. Medium containing secreted cytokines was collected after 48 hr and analyzed using ELISA. FIG. 35 is a tabular summary showing cytokine secretion in splenocytes stimulated with LPS. […] Cytokine secretion in keratinocytes stimulated by TNFα: following stimulation with 35 ng/ml TNFα. And treatment with 10 μg/ml of DAP-1, the cytokine levels of IL-1α, G-CSF, MIP-2 and KC were reduced by 95%, 70%, 20% and 30# respectively.
PKCε inhibitors were also shown to have an anti-inflammatory effect on keratinocytes. Keratinocytes were derived from newborn BALB/C mice skin. The cells were incubated for 5 days in 24 wells plate. Cells were then incubated with PBS−/− as control or stimulated by LPS or TNFα. The PKCεinhibitors EPIP-1 (SEQ ID NO: 20), EPIP-2 (SEQ ID NO: 21), or EPIP-4 (SEQ ID NO: 23) were added. Medium containing secreted cytokines was collected after 48 hr and analyzed using ELISA. FIGS. 36-39 show the results for secretion of specific cytokines while Table 8 summarizes cytokine secretion for the various PKCε inhibitors: […]

keratinocytes [2] = experiment: Keratinocyte differentiation markers (Filaggrin, Loricrin, Keratin 1); type: cell-based, C57BL/6J mice; conditions: concentration: EPIP1 and DAP1 1 μg/ml, 10 μg/ml, EPIP2 10 μg/ml
Method: Keratinocytes derived from C57BL/6J mice were incubated in medium containing Ca^2+ to induce keratinocytes differentiation. Cells were then incubated in the presence of […] (1 μg/ml). Cells were harvested, run on SDS PAGE gel and immunoblotted using anti-Filaggrin (Fil), anti Loricrin (Lor) and anti-Keratin 1 (K1) antibody.
(§1) FIGS. 7 and 8 presents a summary of expression data in keratinocytes utilizing various peptide PKCα inhibitors: MPDY-1 (SEQ ID NO: 21) as well as data for the peptide PKCα inhibitors AIP-1 (SEQ ID NO: 3), AIP-2 (SEQ ID NO: 20), AWOT-1 (SEQ ID NO: 5) and PPDY-1 (SEQ ID NO: 22). […] FIG. 8 presents a summary of expression data in keratinocytes for various peptide PKCα inhibitors.

keratinocytes [3] = experiment: Keratinocyte proliferation in vitro (PCNA); type: cell-based, Balb/c mice; conditions: concentration not given
Method: Primary murine keratinocytes from 2 days old Balb/c mice were grown for 5 days to reach full confluence in 0.05 mM Ca^2+ MEM medium. HO/02/10 treatment (10^−6M and 10^−5M) was applied 6 hours prior to induction of differentiation. Cells were harvested, run on SDS PAGE gel and immunoblotted using anti-PCNA antibodies. In addition, C57Black mice, 8-10 weeks of age were subjected to full thickness wounding in the upper back area to induce epidermis remodeling and differentiation. Following the wounding, mice were treated daily with HO/02/10 (ranged 40-4000 mg/kg/day) for 7 days. At the termination point, mice were euthanized and upper back skin samples were fixed in 4% paraformaldehyde solution, following paraffin embedding and slide preparation. Skin samples were then subjected to immunohistochemical staining utilizing PCNA antibody. (n=18).
as §1

keratinocytes [4] = experiment: Keratinocyte migration; type: cell-based; design: concentration or dose not given beside the values
splenocytes = experiment: Cytokine secretion in splenocytes stimulated with LPS or TNFα (ELISA); type: cell-based, B6 mice
Excerpt: Inhibitory effect on activated splenocytes: Splenocytes were derived from B6 mice. […] Medium containing secreted cytokines was collected after 48 hr and analyzed using ELISA.

[5] = LPS 1 [μg/ml], peptide [10 μg/ml], 48 hr
[6] = TNF [35 ng/ml], peptide [10 μg/ml], 48 hr
[7] = keratinocytes, LPS (1 μg/ml) (EPIP4: printed 1 mg/ml), peptide concentration not given
[8] = keratinocytes, TNFa stim (35 ng/ml), 1 μg/ml of peptide (given for EPIP1, EPIP2, not for EPIP4), reduction printed with or without minus sign
[9] = Keratinocytes, Induction: TNFα (35 ng/ml), peptide (10 μg/ml)
[10] = Splenocytes, Induction: LPS (1 μg/ml) (given for DAP1 only), peptide (10 μg/ml)
[11] = LPS 1 [μg/ml], peptide [1 g/ml], 48 hr
[12] = TNF [35 ng/ml], peptide [1 g/ml], 48 hr
[13] = TNFα 25 ng/ml, peptide 1 μg/ml, 48 hr
[14] = TNFα 25 ng/ml, peptide 10 μg/ml, 48 hr
[15] = keratinocytes, 35 ng/ml TNFα, 10 μg/ml of DAP-1

## EAVSLKPT [EPIP-1]
Keratinocytes [1]; [5]
  G-CSF secretion (change): −70%
  IL-6 secretion (change): −55%
  IP-10 secretion (change): −60%
  KC secretion (change): −100%
Keratinocytes [1]; [6]
  G-CSF secretion (change): −85%
  IL-6 secretion (change): −95%
  IP-10 secretion (change): (−45%)
Keratinocytes [1]; [7]
  G-CSF secretion (change): −70%
  IL-6 secretion (change): −55%
  IP-10 secretion (change): −60%
  KC secretion (change): −100%
Keratinocytes [1]; [8]
  Reduces Chemokines IP 10: Chemokines IP 10 (45%)
  Reduces proinflammatory cytokines IL-6: 95%
  Reduces systemic cytokines G-SCF: −85%
Keratinocytes [2]
  Differentiation markers: granular differentiation: Reduces granular
  Differentiation markers: spainous differentiation: Reduces granular
Keratinocytes [3]
  Proliferation markers (PCNA): Induces
Keratinocytes [4]
  Migration, Induces: (200%)

## FARKGALRQ [AWOT]
Keratinocytes [1]; FIGS. 19 to 23
  cytokine secretion from LPS and TNFα activated keratinocytes: decrease
Keratinocytes [1]; FIGS. 24 to 27
  cytokine secretion from IL-17A activated keratinocytes: decrease
Keratinocytes [1]; stimulated by LPS, TNFα, or IL-17, 48 hr
  cytokine secretion in keratinocytes: effective in decreasing cytokine secretion

## HFEDWIDHFEDWID [DAP-3]
Keratinocytes [1]; [9]
  Reduces Chemokines: KC: KC (25%),
  Reduces proinflamatory cytokine: IL-1a: (50%)
  Reduces proinflamatory cytokine: IL-6: (45%) and IL-1a
  Reduces systemic cytokine G-SCF: SCF (25%),
  Reduces systemic cytokine GM-CSF: SCF (25%),
splenocytes; Splenocytes, DAP3 (10 μg/ml)
  Reduces Chemokines: MIP2: MIP2 (25%)
splenocytes; [10]
  reduces proinflamatory cytokine: IL-1α: IL-1α (45%),
  reduces systemic cytokine: G-SCF: G-SCF (25%),
Keratinocytes [2]
  Differentiation markers: granular differentiation: induces
Keratinocytes [3]
  Proliferation markers (PCNA): induces
Keratinocytes [4]
  Migration, Induces: (200%)

## LEPEAAAAAAGK [EPIP-4]
Keratinocytes [1]; [11]
  G-CSF secretion (change): −75%
  IL-6 secretion (change): −55%
  IP-10 secretion (change): −60%
  KC secretion (change): −100%
Keratinocytes [1]; [12]
  G-CSF secretion (change): IL-6 (−100%), G-CSF (−100%), IP-10
  IL-6 secretion (change): IL-6 (−100%), G-CSF (−100%), IP-10
  IP-10 secretion (change): (−80%)
Keratinocytes [1]; [7]
  IL-6 secretion (change): Reduces proinflammatory IL-6 (−55%),
  IP-10 secretion (change): −60%
  KC secretion (change): −100%
Keratinocytes [1]; [8]
  Reduces Chemokines IP 10: Chemokines IP 10 (−80%)
  Reduces proinflammatory cytokines IL-6: proinflammatory cytokines IL-6(−100%),
splenocytes; [13]
  G-CSF (% reduction in secretion): 45%
  IFN-γ (% reduction in secretion): 25%
  IL-1a (% reduction in secretion): 10%
  IL-6 (% reduction in secretion): 15%
  IL-10 (% reduction in secretion): 30%
  IL-17 (% reduction in secretion): 85%
splenocytes; [14]
  G-CSF (% reduction in secretion): 20%
  IFN-γ (% reduction in secretion): 55%
  IL-10 (% reduction in secretion): 10%
  IL-17 (% reduction in secretion): 90%
  IP-10 (% reduction in secretion): 15%
Keratinocytes [2]
  Differentiation markers: granular differentiation: No influence
  Differentiation markers: spainous differentiation: reduces spainous
Keratinocytes [3]
  Proliferation markers (PCNA): Induces
Keratinocytes [4]
  Migration, Induces: (200%)

## MRAAEAAAAEPM [DAP-1]
Keratinocytes [1]; [9]
  Reduces Chemokines: KC: KC (32%), MIP2
  Reduces Chemokines: MIP2: (30%)
  Reduces proinflamatory cytokine: IL-1a: (40%)
  Reduces proinflamatory cytokine: IL-6: (20%) and IL-1a
  Reduces systemic cytokine GM-CSF: GM-CSF (50%)
Keratinocytes [1]; [15]
  cytokine level of G-CSF reduced by: 70%
  cytokine level of IL-1α reduced by: 95%
  cytokine level of KC reduced by: 30
  cytokine level of MIP-2 reduced by: 20%
Keratinocytes [1]; stimulated by LPS or TNFα
  inflammatory cytokine secretion in keratinocytes: significantly decease
splenocytes; [10]
  Reduces Chemokine: KC: KC (32%), as
  reduces proinflamatory cytokine: IL-1α: IL-1α (45%),
  reduces systemic cytokine: G-SCF: (40%),
splenocytes; Splenocytes, Induction: LPS (1 μg/ml), DAP1 (1 μg/ml)
  induces antiinflamatory cytokine: IL 10: IL 10 (200%)
splenocytes; Splenocytes, Induction: LPS (1 μg/ml), DAP1 (10 μg/ml)
  Reduces TNFa expression: expression (28%).
splenocytes; stimulated with LPS
  inflammatory cytokine secretion in splenocytes: significantly decease
Keratinocytes [2]
  Differentiation markers: granular differentiation: induces
Keratinocytes [3]
  Proliferation markers (PCNA): Reduces
Keratinocytes [4]
  Migration, Induces: (200%)
